Reference: US20240059703A1 (AMGEN INC., priority 2021, published 2024)
Like-named read-outs stand apart in the source and are kept apart here.

What was measured:
KRAS G12C = KRAS G12C (Homo sapiens (Human), UniProt P01116, C118A/G12C); experiment: 2 h coupled exchange assay; type: biochemical
Experimental: The term “2 h coupled exchange assay” or “20 h coupled exchange assay” as used herein refers to the assay described in the Section entitled “BIOLOGICAL EVALUATION.”

[1] = system: MIA PaCa-2 (human pancreatic carcinoma) cells; experiment: Cell Viability Assay (CellTiter-Glo), MIA PaCa-2; type: cell-based
Experimental: Serially-diluted compound or DMSO was added to the cells, and plates were incubated at 37° C., 5% CO2 for 72 h. Cell viability was measured using a CellTiter-Glo® Luminescent Cell Viability Assay kit (Promega) according to the manufacturer's protocol. The luminescence signal of treated samples was normalized to DMSO control, and data were analyzed using a 4-parameter logistic model to calculate IC50 values.

[2] = system: A549 (human lung carcinoma) cells; experiment: Cell Viability Assay (CellTiter-Glo), A549; type: cell-based
How it was run: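 Seeding at 1.67E+04 cells/mL is followed by overnight attachment at 37° C., 5% CO2. Serially diluted compound is added for 72 h. Viability is read by CellTiter-Glo luminescence, scaled to DMSO and fitted (4-parameter logistic) to give IC50.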

[3] = Avg 2 h Coupled exchange IC50, 2 h compound pre-incubation
[4] = Avg 2 h Coupled exchange IC50, 2 h compound pre-incubation, SOS-mediated nucleotide exchange

Chain of KRAS G12C (P01116 other isoform, or with tags, fused parts or gaps G12C/C118A): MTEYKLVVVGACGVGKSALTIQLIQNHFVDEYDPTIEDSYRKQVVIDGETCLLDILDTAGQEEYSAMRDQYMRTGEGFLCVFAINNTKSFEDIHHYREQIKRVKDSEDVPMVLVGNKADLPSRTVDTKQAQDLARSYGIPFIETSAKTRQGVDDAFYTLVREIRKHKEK

IC50 (KRAS G12C; [3]) | IC50 ([1]; Homo sapiens, MIA PaCa-2, 72 h) | IC50 ([2]; Homo sapiens, A549, 72 h) | IC50 (KRAS G12C; [4]) | IC50 (KRAS G12C; read-out: Avg 2 h Coupled exchange IC50, 2 h compound pre-incubation) | IC50 ([1]; 72 h) | IC50 ([2]; 72 h) | SMILES
822 nM | 4410 nM | > 25 µM | – | – | – | – | C=CC(=O)N1CC2(CCN(c3nc4c(c(-c5ccccc5F)c3C#N)CCN(CC3CCCN3C)C4)C2)C1 [Example 21-29, 4-(2-fluorophenyl)-7-(((2R)-1-methyl-2-pyrrolidinyl)methyl)-2-(2-(2-propenoyl)-2,6-diazaspiro[3.4]octan-6-yl)-5,6,7,8-tetrahydro-1,7-naphthyridine-3-carbonitrile 4-(2-fluorophenyl)-7-(((2S)-1-methyl-2-pyrrolidinyl)methyl)-2-(2-(2-propenoyl)-2,6-diazaspiro[3.4]octan-6-yl)-5,6,7,8-tetrahydro-1,7-naphthyridine-3-carbonitrile]
135 nM | 1540 nM | 8.01 µM | – | – | – | – | C=CC(=O)N1CC2(CCN(c3nc4c(c(-c5cc(OC)ccc5F)c3C#N)CCC(c3scnc3C)=C4)C2)C1 [Example 23-38, 4-(2-fluoro-5-methoxyphenyl)-7-(4-methyl-1,3-thiazol-5-yl)-2-(2-(2-propenoyl)-2,6-diazaspiro[3.4]octan-6-yl)-5,6-dihydro-3-quinolinecarbonitrile]
– | 381 nM | > 5 µM | 38 nM | – | – | – | C=CC(=O)N1CC2(CCN(c3nc4c(c(-c5cc(O)ccc5C)c3C#N)C[C@H]3C[C@@H]4C3(C)C)C2)C1 [Example 2-67, (1R,9R)-6-(5-hydroxy-2-methylphenyl)-10,10-dimethyl-4-(2-(2-propenoyl)-2,6-diazaspiro[3.4]octan-6-yl)-3-azatricyclo[7.1.1.0^2,7]undeca-2,4,6-triene-5-carbonitrile]
196 nM | 972 nM | > 5 µM | – | – | – | – | C=CC(=O)N1CC2(CCN(c3nc4c(c(-c5ccccc5Cl)c3C#N)COC(c3scnc3C)C4)C2)C1 [Example 23-15, (7R)-4-(2-chlorophenyl)-7-(4-methyl-1,3-thiazol-5-yl)-2-(2-(2-propenoyl)-2,6-diazaspiro[3.4]octan-6-yl)-7,8-dihydro-5H-pyrano[4,3-b]pyridine-3-carbonitrile (7S)-4-(2-chlorophenyl)-7-(4-methyl-1,3-thiazol-5-yl)-2-(2-(2-propenoyl)-2,6-diazaspiro[3.4]octan-6-yl)-7,8-dihydro-5H-pyrano[4,3-b]pyridine-3-carbonitrile]
– | 135 nM | > 5 µM | 6 nM | – | – | – | C=CC(=O)N1CC2(CCN(c3nc4c(c(-c5cc(O)cc6ncccc56)c3C#N)C[C@H]3C[C@@H]4C3(C)C)C2)C1 (single isomer, unassigned) [Example 2-46]
39 nM | 68 nM | > 5 µM | – | – | – | – | C=CC(=O)N1CC2(CCN(c3nc4c(c(-c5c(C)c(Cl)cc6cnn(C)c56)c3C)COC(C)(C)C4)C2)C1 [Example 14-87, 1-(6-(4-(5-chloro-1,6-dimethyl-1H-indazol-7-yl)-3,7,7-trimethyl-7,8-dihydro-5H-pyrano[4,3-b]pyridin-2-yl)-2,6-diazaspiro[3.4]octan-2-yl)-2-propen-1-one]
– | 472 nM | > 5 µM | 74 nM | – | – | – | C=CC(=O)N1CC2(CCN(c3nc4c(c(-c5cc(O)cc6ccccc56)c3C#N)CC(C)(C)C4)C2)C1 [Example 13-65, 4-(3-hydroxy-1-naphthalenyl)-6,6-dimethyl-2-(2-(2-propenoyl)-2,6-diazaspiro[3.4]octan-6-yl)-6,7-dihydro-5H-cyclopenta[b]pyridine-3-carbonitirle]
243 nM | 1350 nM | 9.15 µM | – | – | – | – | C=CC(=O)N1CC2(CCN(c3nc4cc(-c5nccn5C)ccc4c(-c4ccc(F)cc4F)c3C#N)C2)C1 [Example 20-14, 4-(2,4-difluorophenyl)-7-(1-methyl-1H-imidazol-2-yl)-2-(2-(2-propenoyl)-2,6-diazaspiro[3.4]octan-6-yl)-3-quinolinecarbonitrile]
280 nM | 320 nM | 11.2 µM | – | – | – | – | C=CC(=O)N1CC2(CCN(c3nc4cc(-c5scnc5C)cnc4c(-c4ccc(F)cc4)c3C#N)C2)C1 [Example 19-8, 4-(4-fluorophenyl)-7-(4-methyl-1,3-thiazol-5-yl)-2-(2-(2-propenoyl)-2,6-diazaspiro[3.4]octan-6-yl)-1,5-naphthyridine-3-carbonitrile]
38 nM | 585 nM | > 5 µM | – | – | – | – | C=CC(=O)N1CC2(CCN(c3nc4c(c(-c5cccc(C)c5C)n3)CC[C@@H](c3scnc3C)C4)C2)C1 (single isomer, unassigned) [Example 22-1]
– | 1140 nM | 6.44 µM | 1890 nM | – | – | – | C=CC(=O)N1CC2(CCN(c3nc4c(C)cccc4c(-c4c(C)ccc5[nH]ncc45)c3C#N)C2)C1 [Example 1-6, 8-methyl-4-(5-methyl-1H-indazol-4-yl)-2-(2-(2-propenoyl)-2,6-diazaspiro[3.4]octan-6-yl)-3-quinolinecarbonitrile]
– | 1440 nM | > 5 µM | 589 nM | – | – | – | C=CC(=O)N1CC2(CCN(c3nc4c(c(-c5c(C)ccc6[nH]ncc56)c3C(=O)OC)CCC(C)(C)C4)C2)C1 [Example 13-44, methyl 7,7-dimethyl-4-(5-methyl-1H-indazol-4-yl)-2-(2-(2-propenoyl)-2,6-diazaspiro[3.4]octan-6-yl)-5,6,7,8-tetrahydro-3-quinolinecarboxylate]
– | > 5000 nM | > 5 µM | 75 nM | – | – | – | C=CC(=O)N1CC2(CCN(c3nc4c(c(-c5cc(O)cc6ccccc56)n3)CCC(C)(C)C4)C2)C1 [Example 1-31, 1-(6-(4-(3-hydroxy-1-naphthalenyl)-7,7-dimethyl-5,6,7,8-tetrahydro-2-quinazolinyl)-2,6-diazaspiro[3.4]octan-2-yl)-2-propen-1-one]
242 nM | 210 nM | > 5 µM | – | – | – | – | C=CC(=O)N1CC2(CCN(c3cc4c(c(-c5c(C)ccc6[nH]ncc56)c3C)COCC4)C2)C1 [Example 14-104, 1-(6-(7-methyl-8-(5-methyl-1H-indazol-4-yl)-3,4-dihydro-1H-2-benzopyran-6-yl)-2,6-diazaspiro[3.4]octan-2-yl)-2-propen-1-one]
– | – | – | – | 62 nM | 1120 nM | > 5 µM | C=CC(=O)N1CC2(CCN(c3nc4c(c(-c5c(C)ccc6[nH]ncc56)c3C#N)CC(C(C)C)C4)C2)C1 (racemic) [Example 24-1, (6R)-4-(5-methyl-1H-indazol-4-yl)-6-(2-propanyl)-2-(2-(2-propenoyl)-2,6-diazaspiro[3.4]octan-6-yl)-6,7-dihydro-5H-cyclopenta[b]pyridine-3-carbonitrile and (6S) 4-(5-methyl-1H-indazol-4-yl)-6-(2-propanyl)-2-(2-(2-propenoyl)-2,6-diazaspiro[3.4]octan-6-yl)-6,7-dihydro-5H-cyclopenta[b]pyridine-3-carbonitrile]
200 nM | 478 nM | > 5 µM | – | – | – | – | C=CC(=O)N1CC2(CCN(c3nc4c(c(-c5ncccc5C)c3C#N)CC[C@@](C)(c3scnc3C)C4)C2)C1 [Example 23-10, (7R)-7-methyl-4-(3-methyl-2-pyridinyl)-7-(4-methyl-1,3-thiazol-5-yl)-2-(2-(2-propenoyl)-2,6-diazaspiro[3.4]octan-6-yl)-5,6,7,8-tetrahydro-3-quinolinecarbonitrile]
930 nM | 4570 nM | 11.2 µM | – | – | – | – | C=CC(=O)N1CC2(CCN(c3nc4c(c(-c5ccccc5F)c3C#N)CCN(c3scnc3C)[C@H]4C)C2)C1 [Example 21-6, (8S)-4-(2-fluorophenyl)-8-methyl-7-(4-methyl-1,3-thiazol-5-yl)-2-(2-(2-propenoyl)-2,6-diazaspiro[3.4]octan-6-yl)-5,6,7,8-tetrahydro-1,7-naphthyridine-3-carbonitrile]
– | 180 nM | > 5 µM | 26 nM | – | – | – | C=CC(=O)N1CC2(CCN(c3nc4c(c(-c5c(C)ccc6cnn(C)c56)c3C#N)CC(C)(C)C4)C2)C1 (single isomer, unassigned) [Example 13-18, (P)-4-(1,6-dimethyl-1H-indazol-7-yl)-6,6-dimethyl-2-(2-(2-propenoyl)-2,6-diazaspiro[3.4]octan-6-yl)-6,7-dihydro-5H-cyclopenta[b]pyridine-3-carbonitrile]
– | 2740 nM | 6.25 µM | 757 nM | – | – | – | C=CC(=O)N1CC2(C1)CN(c1nc3c(F)cccc3c(-c3c(C)ccc4[nH]ncc34)c1C#N)CC2(F)F [Example 1-39, 2-(8,8-difluoro-2-(2-propenoyl)-2,6-diazaspiro[3.4]octan-6-yl)-8-fluoro-4-(5-methyl-1H-indazol-4-yl)-3-quinolinecarbonitrile]
– | 13 nM | > 5 µM | 20 nM | – | – | – | C=CC(=O)N1CC2(CCN(c3nc4c(c(-c5c(C)c(Cl)cc6[nH]ncc56)c3C)COC(C)(C)C4)C2)C1 [Example 2-36, 1-(6-(4-(6-chloro-5-methyl-1H-indazol-4-yl)-3,7,7-trimethyl-7,8-dihydro-5H-pyrano[4,3-b]pyridin-2-yl)-2,6-diazaspiro[3.4]octan-2-yl)-2-propen-1-one]
